Test system: melatonin receptor type 1 gene (MT1)
Assay: Impact of vitamin E on melatonin receptor expression in rat brain (high-density oligonucleotide microarrays)
Format: in vivo
Settings: male rats, vitamin E containing diet vs vitamin E deficient diet, monitored over 9 months at 4 time-points, brain/hippocampus
Description: The impact of vitamin E on melatonin receptor expression in rat hippocampus was determined as follows: Two groups of male rats were randomly assigned to either a VE sufficient diet or to a diet deficient in VE for 270 days. High-density oligonucleotide microarrays comprising over 7,000 genes were used to assess the transcriptional response of the brain. Differential gene expression was monitored over a period of 9 months, at 4 different time-points.

**Q.** vitamin E was tested. Which “melatonin receptor type 1 gene (MT1) expression in the brain” value did it give?
**A.** strongly and consistently up-regulated
